Assay results as given in article PMC2806516 (Biochemistry, 2010).

Assays:
HpaA [1] = biological target: T1, HpaA (Pseudomonas aeruginosa, UniProt Q9HWT7); assay: stopped-flow; assay type: binding
T1 sequence (Q9HWT7 1-520): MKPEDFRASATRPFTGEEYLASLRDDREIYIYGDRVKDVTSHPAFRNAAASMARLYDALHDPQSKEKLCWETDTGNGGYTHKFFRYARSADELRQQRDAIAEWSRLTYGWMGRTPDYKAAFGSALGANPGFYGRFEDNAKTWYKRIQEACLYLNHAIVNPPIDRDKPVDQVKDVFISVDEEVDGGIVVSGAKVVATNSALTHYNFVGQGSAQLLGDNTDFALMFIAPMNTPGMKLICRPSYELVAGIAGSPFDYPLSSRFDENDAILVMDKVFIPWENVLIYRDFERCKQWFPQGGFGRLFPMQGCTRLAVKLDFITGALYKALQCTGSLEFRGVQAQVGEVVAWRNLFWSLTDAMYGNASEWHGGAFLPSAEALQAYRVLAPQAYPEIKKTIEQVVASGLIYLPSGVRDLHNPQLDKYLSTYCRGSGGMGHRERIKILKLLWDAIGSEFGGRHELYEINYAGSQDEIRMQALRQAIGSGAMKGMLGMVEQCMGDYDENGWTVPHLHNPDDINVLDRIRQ

HpaC [2] = biological target: T2, HpaC (Pseudomonas aeruginosa, UniProt Q9HWT6); assay: stopped-flow; assay type: binding
T2 sequence (Q9HWT6 1-170): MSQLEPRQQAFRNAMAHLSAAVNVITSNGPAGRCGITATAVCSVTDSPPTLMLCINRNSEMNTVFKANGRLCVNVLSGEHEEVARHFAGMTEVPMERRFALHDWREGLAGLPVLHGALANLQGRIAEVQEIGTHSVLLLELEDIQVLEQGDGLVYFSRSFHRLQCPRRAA

HpaC [3] = biological target: T2, HpaC; assay: fluorimetric titration; assay type: binding
HpaA [4] = biological target: T1, HpaA; assay: absorption spectral titration; assay type: binding
[5] = biological target: HpaA, oxygenase of p-hydroxyphenylacetate 3-hydroxylase (HPAH) from Pseudomonas aeruginosa, N-terminal His-tagged (P. aeruginosa); assay: SEC

## Cc1cc2c(cc1C)N(C[C@H](O)[C@H](O)[C@H](O)COP(=O)(O)OP(=O)(O)OC[C@H]1O[C@@H](n3cnc4c(N)ncnc43)[C@H](O)[C@@H]1O)c1[nH]c(=O)[nH]c(=O)c1N2 [FADH^−]
HpaA [1]
  Kd: ≤ 2 µM
HpaC [2]
  Kd: ~20 µM

## Cc1cc2nc3c(=O)[nH]c(=O)nc-3n(C[C@H](O)[C@H](O)[C@H](O)COP(=O)(O)OP(=O)(O)OC[C@H]3O[C@@H](n4cnc5c(N)ncnc54)[C@H](O)[C@@H]3O)c2cc1C [FAD]
HpaC [3]
  Kd: 3 µM
HpaA [4]
  Kd: ≥ 250 µM

## HpaA, oxygenase of p-hydroxyphenylacetate 3-hydroxylase (HPAH) from Pseudomonas aeruginosa, N-terminal His-tagged (enzyme)
[5]
  stoichiometry N: 2
